Usually melting point stands for the temperature, or range, at which the solid turns liquid.

`O=C/C=C/c1cc2ccccc2o1` returned a melting point of 67 °C. The same measure for `Cc1cc(-c2nnn(C)n2)cc(C)c1OCCCn1cncn1`: 76 to 78 °C; for `COC(=O)Cc1csc(NC(C)=O)n1`: 122 to 123 °C; for `Nc1ncc(-c2noc(-c3cnn4c(C(F)(F)F)cc(-c5ccc(C(F)(F)F)c(F)c5)nc34)n2)cn1`: 270 °C. Compound `CCn1c(Cl)nc2ccccc21` came in with a melting point of 48 to 50 °C. On to `Cc1nc2c(cc1C(=O)NC(=N)N)CCCCC2`, for which the melting point fell in the range of 230 to 232 °C. The compound `COC(=O)COc1ccc(C(=O)CCCl)cc1` gave a melting point of 89 to 90 °C. For `COc1nc2cc(Cl)c(Cl)c(NS(=O)(=O)c3ccccc3)c2nc1OC` the value was 292 to 293 °C; for `CS(=O)(=O)OCCC1=C(CCOS(C)(=O)=O)c2ccccc2Sc2ccccc21`, 107 to 108 °C. As for `COc1ccc(C[C@H](NC(=O)OC(C)(C)C)C(=O)c2ccc(O)cc2)cc1`, the melting point was in the range of 133 to 135 °C. For `N#Cc1cnc2sc(-c3ccccc3)cc2c1Nc1cccc2[nH]ccc12` the value was above 245 °C; for `C=CCNC(=O)c1cc(CCc2cc3c(s2)-n2c(C)nnc2CN=C3c2ccccc2Cl)ccc1CC(=O)Nc1cccc(/C=C/c2nc(C3CCC3)cs2)c1`, 127 to 132 °C. The same measure for `O=c1oc2c(c(OCCN3CCOCC3)c1-c1ccccc1)CCCC2`: 115 °C; for `COC(=O)c1cc(OC(C)=O)c2cc[nH]c2c1`: 160 to 162 °C. The compound `CCOC(=O)N1CCN(C(=O)Oc2ccc([N+](=O)[O-])cc2)CC1` gave a melting point of 125 to 128 °C. Compound `CC(O)C1=C(c2ccccc2)C(=O)N(C(C)(C)C(=O)Nc2cc(Cl)cc(Cl)c2)CO1` (stereo not given) returned a melting point of 85 to 88 °C. For `COc1ccc(-c2cccc(F)c2)cc1` the value was 63 to 64 °C; for `Cc1noc([C@H]2CC[C@@](C)(NCC(=O)N3C[C@@H](F)C[C@H]3C#N)C2(C)C)n1`, 147 to 151 °C; for `Cc1ccc(C2(O)CCN(CCCN3c4cccc5cccc(c45)S3(=O)=O)CC2)cc1`, 218 °C. For `C[C@]12CC[C@@H]3c4ccc(O)cc4CC[C@H]3[C@@H]1CCC2=C(F)F` the value was 154 to 156 °C; for `CCc1nc2c(N)nc3cc(OCc4ccccc4)ccc3c2s1`, 208 to 209 °C; for `COc1ccc(S(N)(=O)=O)cc1C(O)CN=[N+]=[N-]` (stereo not given), 122 °C. For `O=c1c2c(nc3ccc(Cl)cn13)CCC2` the value was 146 to 147 °C; for `O=Cc1ccc(O)c2oc3ccc([N+](=O)[O-])cc3c12`, above 270 °C; for `CCOC(=O)c1[nH]c(C)nc1C(=S)OCC`, 119 to 121 °C. `NS(=O)(=O)c1ccc(-c2noc(-c3cnn4c(C(F)(F)F)cc(-c5ccc(Cl)cc5)nc34)n2)s1` had a melting point of 294 °C. Compound `O=C(O)c1cc2cccc(Cl)c2s1` showed a melting point of 262 to 265 °C. `CCc1cc(CC)c(N)cc1N` came in with a melting point of 49 to 51 °C. The same measure for `COc1ccccc1NS(=O)(=O)c1ccc(N2CCNC2=O)cc1`: 209 to 211 °C; for `Oc1ccc([C@@H]2C[C@H]2c2ccc(O)cc2)cc1` (relative stereo): 190 to 191 °C; for `O=[N+]([O-])c1ccc(-c2ncnn2-c2ccc(F)cc2)cc1`: 132 to 134 °C.

For the compound `CC(=O)N1CCN(c2ncc3c(=O)c(C(=O)O)c[nH]c3n2)CC1`, the melting point is 298 to 300 °C. For `Cc1cc2occc2c(N2CCN(CC[C@H]3CC[C@H](NC(=O)CC4CCOCC4)CC3)CC2)n1` the value was 212 °C; for `Cc1cccc(COc2cccc(O)c2)c1C(=O)O`, 112 to 113 °C; for `O=C(O)CCCCC[C@@H]1C[C@@H](NS(=O)(=O)c2ccc(Cl)cc2)CN1S(=O)(=O)c1ccc(Cl)cc1`, 124 to 125 °C.

Take `N#CC(C(=O)Nc1cccnc1)C(=O)c1nn(-c2ccccc2)c2c1COc1ccccc1-2` (stereo not given): the melting point lay within 280 to 282 °C.

With `COC(=O)c1cc2c3cc(Cl)ccc3n(C)c2s1`, the melting point lay within 188 to 190 °C. The same measure for `CNc1nc(CO)c(-c2ccncc2)s1`: 216 to 218 °C; for `Cc1nc(N2CCCCC2=O)sc1C(=O)NCc1ccccc1`: 175 to 176 °C. Regarding `CCCCCCCCCCCC(=O)c1c(-c2ccccc2)[nH]n(-c2ccccc2)c1=O`, the melting point came to 69 °C. The same measure for `Oc1cccc2c1sc1ccccc12`: 167 to 168 °C; for `CCCCc1nc2c(N)nc3cccnc3c2s1`: 136 to 138 °C; for `COC(=O)c1cn(CCN)c(Cl)c1-c1cccc(C#N)c1`: 111 to 113 °C. The same measure for `Cc1cc(SCC(=O)NCCc2ccccc2)nc(N)n1`: 114 to 121 °C; for `CNC(=O)NCCN1CCC(=C2c3ccccc3CCn3ccnc32)CC1`: 178 °C; for `Cc1cc(C(=O)O)c(S(N)(=O)=O)o1`: 191 °C. Turning to `Cc1cc(Cc2ccccc2)c(NC(=O)NCc2ccccc2)c(=O)n1CC(=O)O`, the melting point was determined as 176 °C.

Consider `CC#CCOc1ccc(S(=O)(=O)C2(C(=O)NO)CCN(C(C)C)CC2)cc1`, for which the melting point turned out to be 105 °C.

`CC(C)(C)c1cc(OCCCC#N)cc(C(C)(C)C)c1O` had a melting point of 67 to 69 °C.

With `CCCCOC(=O)c1ccc(OCCCC)c(C(C)=O)c1`, the melting point was 39 to 40 °C. The same measure for `CS(=O)(=O)c1ccc(Oc2ccc(O)cc2)cc1`: 129 to 130 °C; for `CC(OC=O)C1C(=O)N([Si](C)(C)C(C)(C)C)C1CC(=O)O` (mixture of isomers): 109 to 110 °C. On to `CCCCCCc1cc(C(=O)O)c(N)s1`, for which the melting point is 80 to 81 °C.

As for `O=C1CC[C@@H](C(=O)N[C@@H](CSSC[C@H](NC(=O)[C@@H]2CCC(=O)N2)C(=O)O)C(=O)O)N1`, the melting point was in the range of 191 to 193 °C. Regarding `CCOC(=O)c1ccc(NCc2ccccc2)nc1C(=O)OCC`, the melting point is 110 to 114 °C.

For the compound `O=C1CNc2ncc(I)cc2N1Cc1cc(C(F)(F)F)ccc1Cl`, the melting point was 252 to 253 °C. The same measure for `O=C(Nc1ccc(F)c([N+](=O)[O-])c1)c1ccc(Cl)c(Cl)c1`: 202 to 204 °C; for `CCN(CC)CCC1CCCN(C(=O)N2c3ccccc3NC(=O)c3cccnc32)C1` (stereo not given): 110 to 113 °C.

The compound `Cc1ccc2oc(=O)c(=O)oc2c1` displayed a melting point of 121 to 123 °C. Consider `CC1(C)CN(c2ccncc2)c2ccc(S(=O)(=O)c3ccccc3)cc2O1`, for which the melting point is 113 to 120 °C. In the case of `Cc1nc(N2CCc3ccccc3CC2)c(C#N)c(=O)n1N`, the melting point was in the range of 137 to 142 °C.

Regarding `O=c1[nH]c2c([nH]c1=O)C1=C(CCC(n3cccc3)=C1)CC2`, the melting point was above 250 °C. For `CC(C)n1nc(-c2nc(N)cnc2-c2ccccc2)ccc1=O` the value was 214 to 217 °C; for `CCCC(c1ccc(NC(C)=O)cc1)n1ccnc1` (stereo not given), 186 °C; for `CCCCCCCCCC(=O)OC1=C(c2nnc(CCCCCCCCC)o2)N(C)S(=O)(=O)c2ccccc21`, 68 to 69 °C. In the case of `Clc1ccc2c(c1)SCc1cccnc1C2=C1CCNCC1`, the melting point lay in the range of 206 to 215 °C. The same measure for `CN1C(=O)CCC2(C)C3CCC4(C)C(OCC(N)=O)CCC4C3CCC12` (stereo not given): 222 to 225 °C; for `O=C(Nc1cccnc1)N1N=CCC1c1ccccc1` (stereo not given): 104 to 106 °C; for `O=C(O)C(O)C(Sc1ccc(O)cc1)c1ccccc1CCCCCCCCc1ccccc1` (stereo not given): 155 to 157 °C.

Regarding `CSc1ccc(S(=O)(=O)N2CCCC2=O)cc1`, the melting point lay in the range of 123 to 125 °C.

In turn, `COc1ccc(C(=O)c2cc3c(ccc4ccccc43)oc2=O)cc1` yielded a melting point of 158 to 160 °C. For `COc1cc2c(cc1Nc1ncc(Cl)c(Nc3ccc(N(C)C)cc3S(=O)(=O)C(C)C)n1)CCN(CC(=O)N(C)C)CC2` the value was 81 to 93 °C. For `CCN1CN2C(=N1)C(c1ccccc1Cl)=NCC1=C2S(=O)C(C(=O)NC)C1` (stereo not given) the value was 193 to 194 °C; for `CCCCCCCCCCCC1Cc2cc(C(=O)O)ccc2N1` (racemic), 99 to 103 °C; for `CCOc1cc2c(cc1OCC)C1CN(C)CCC1N=C2c1ccc(C#N)cc1` (single isomer, unassigned; (-)), 141 °C. The same measure for `CN1C(=O)C(Br)=C(c2cn(S(=O)(=O)c3ccccc3)c3ncccc23)C1=O`: 198 °C; for `CC1(CBr)SC2C(NC(=O)COc3ccccc3)C(=O)N2C1C(=O)O` (stereo not given): 164 to 166 °C; for `Cc1nc2ncnn2c(C2CCCCC2)c1-c1c(F)cc(OCCCN(C)C)cc1F`: 95 to 97 °C. Consider `CC1=C(C)C(=O)N(C(=O)NCCc2ccc(S(=O)(=O)NC(=O)NC3CCCCC3)cc2)C1`, for which the melting point fell in the range of 189 to 190 °C. For `O=C(O)c1ccc2c(c1)S(=O)(=O)c1ccccc1O2` the value was 286 °C; for `FC(F)(F)c1cccc(Nc2ncnc(NCc3ccco3)n2)c1`, 207 to 209 °C. For `N#Cc1ccc2sc(CO)cc2c1` the value was 78 to 79 °C; for `CNC(=S)N(C)NC(=O)c1cccs1`, 176 to 178 °C; for `CCc1nnc(N2N=C(c3ccc([N+](=O)[O-])cc3)c3cc4c(cc3C[C@H]2C)OCO4)s1`, 105 °C. For `CC(C)c1ccccc1Sc1c(O)cc(-c2ccc(OCCCc3ccccc3)cc2)oc1=O` the value was 132 to 133 °C; for `CCCc1c(OCC2Cc3c(ccc(C(C)=O)c3O)O2)ccc(C(C)=O)c1O` (stereo not given), 104 to 106 °C. `N#Cc1ccccc1-n1nc(C2CCN(C#N)CC2)c2ccccc21` returned a melting point of 188 to 190 °C. As to `O=C(O)c1ccc2c(c1)C1(c3ccccc3-2)c2ccccc2-c2ccc(C(=O)O)cc21`, the melting point was 352 °C.

`O=C(NN1CC=CCC1)Oc1ccccc1`: the melting point fell in the range of 124 to 126 °C. The same measure for `Cc1nc2nc(-c3ccc(C4(N)CCC4)cc3)c(-c3ccccc3)cn2n1`: 207 °C.

Source of the values: a melting point compilation (Tetko et al.; mined from patent text by program, amines drawn as free bases though some values may be those of a salt).
